Experimental data published in patent publication US6506876B1, “LTA4 hydrolase inhibitor pharmaceutical compositions and methods of use” (G.D. Searle & Co., priority 1994, dated 2003).
pIC50: −log10 of the molar value. Read-outs that look alike come from different tables or passages of the source.

Columns and labels:
[1] = target: T1, recombinant human LTA4 hydrolase (rhLTA4H) (Homo sapiens, UniProt P09960); experiment: Recombinant human LTA4 hydrolase assay for LTA4 hydrolase inhibitor activity; conditions: Recombinant Human LTA4 Hydrolase Assay IC50 LTA4H
T1 sequence (P09960 1-611): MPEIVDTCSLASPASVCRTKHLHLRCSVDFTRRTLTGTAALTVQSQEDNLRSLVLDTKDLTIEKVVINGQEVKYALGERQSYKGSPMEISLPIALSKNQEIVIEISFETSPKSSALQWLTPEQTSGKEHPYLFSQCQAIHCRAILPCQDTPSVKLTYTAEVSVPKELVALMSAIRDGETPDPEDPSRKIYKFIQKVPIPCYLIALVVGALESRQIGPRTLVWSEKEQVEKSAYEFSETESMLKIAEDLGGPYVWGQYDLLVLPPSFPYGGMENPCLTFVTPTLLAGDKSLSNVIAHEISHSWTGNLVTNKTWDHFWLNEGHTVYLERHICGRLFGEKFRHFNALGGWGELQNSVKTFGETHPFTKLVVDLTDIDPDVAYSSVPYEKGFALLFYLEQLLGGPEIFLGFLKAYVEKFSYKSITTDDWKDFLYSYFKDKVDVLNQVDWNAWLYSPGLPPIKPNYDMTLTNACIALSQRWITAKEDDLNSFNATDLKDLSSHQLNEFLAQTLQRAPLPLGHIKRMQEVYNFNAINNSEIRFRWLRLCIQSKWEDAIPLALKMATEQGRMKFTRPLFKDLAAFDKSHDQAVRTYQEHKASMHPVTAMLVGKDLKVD
Protocol: One or more predetermined amounts of a compound of the invention were incubated in assay buffer (0.1 M potassium phosphate, 5 mg/ml fatty acid free BSA, 10% DMSO, pH 7.4) for 10 minutes at room temperature with 250 ng of recombinant hLTA4H to allow binding, if any, between the enzyme and inhibitor. The stock enzyme solution was 1 mg/ml LTA4 hydrolase, 50 mM Tris, pH 8.0, 150 mM NaCl, 2.5 mM beta-mercaptoethanol, 50% glycerol. […] Each reaction was carried out at room temperature for 10 minutes. The reaction was stopped by diluting 25 μl of the reaction mixture with 500 μl of the assay buffer without DMSO. LTB4 was quantified in the diluted sample by a commercially available enzyme-linked immunoassay [Caymen Chemical Co., Ann Arbor, Mich.] using the method recommended in the manufacturer's instructions and compared to the amount of LTB4 produced in a negative control (i.e., essentially identical conditions except without addition of an inhibitor compound). The IC50 was routinely calculated from the data produced.

[2] = test system: LTB4 production in mouse blood (LTA4 hydrolase); experiment: Ex vivo LTB4 production by calcium ionophore stimulated mouse blood after oral dosing; type: in vivo
Protocol: Ex Vivo LTB4 and Thromboxane Production by Calcium Ionophore Stimulated Mouse Blood for LTA4 Hydrolase Inhibitor Activity
Leukotriene A4 hydrolase inhibitor compounds of the present invention were diluted to a predetermined concentration in phosphate buffered saline containing 2% DMSO and 1% Tween 80. The compounds were administered by oral gavage to adult male outbred mice weighing approximately 20-30 gm at a dose of 10 mg/kg body weight. (Compounds given at a dose of 50 mg/kg body weight are designtated in following Table by the symbol, *.) Sixty (60) minutes after administration of an LTA4 inhibitor compound of the invention, blood was collected (into heparin-containing tubes) from the retroorbital sinus. […] The mixture was incubated for 10 minutes at 37° C. in a humidified incubator. The reaction was terminated by centrifugation (833 g, 10 minutes at 4° C.). Supernatants were analyzed for LTB4 and thromboxane by commercially available enzyme-linked immunoassays (Caymen Chemical Co., Ann Arbor, Mich.] in accordance with the manufacturer's instructions. The percent inhibition was determined by comparison to animals treated identically except that the solution admininstered by oral gavage was devoid of inhibitor compound.

[3] = Mus musculus, po, 1 h, read-out: Murine Ex Vivo LTB4 Inhibition % I LTB4
[4] = mouse, oral gavage, 1 hour after administration of 10 mg/kg; read-out: Murine Ex Vivo LTB4 Inhibition % I LTB4
[5] = mouse, oral gavage, 1 hour after administration of 50 mg/kg (*); read-out: Murine Ex Vivo LTB4 Inhibition % I LTB4
[6] = Mus musculus, po, 1 h; read-out: Murine Ex Vivo LTB4 Inhibition % I LTB4

SMILES	pIC50 ([1]; recombinant hLTA4H)	inhibition in vivo at 10 mg/kg [2, 4]	also measured
Fc1ccc(Oc2ccc(OCCN3CCCC3)cc2)cc1 [Example 48, 1-[2-[4-(4-fluorophenoxy)phenoxy]ethyl]pyrrolidine]	6.82		inhibition in vivo at 10 mg/kg [2, 3]: 13%
c1ccc2ncc(Cc3ccc(OCCN4CCCC4)cc3)cc2c1 [Example 132]	7.08	83%	
c1csc(Cc2ccc(OCCN3CCCC3)cc2)c1 [Example 133]	8.00	49%	
Oc1ccc(Cc2ccc(OCCN3CCCC3)cc2)cc1 [Example 137]	7.52	38%	
c1ccc(Cc2ccc(OCCN3CCCC3)cc2)nc1 [Example 138]	6.38	21%	
Fc1ccc(Cc2ccc(OCCN3CCCC3)cc2)cc1 [Example 139]	6.96	9%	
Fc1cccc(Cc2ccc(OCCN3CCCC3)cc2)c1 [Example 142]	7.43	32%	
NC(=O)C1CCN(CCOc2ccc(Cc3ccccc3)cn2)CC1 [Example 147]	5.97	94%	
Clc1ccccc1COc1ccc(OCCN2CCCC2)cc1 [Example 208]	5.40	13%	
FC(F)(F)c1cccc(COc2ccc(OCCN3CCCC3)cc2)c1 [Example 209]	5.52	0%	
Fc1cccc(COc2ccc(OCCN3CCCC3)cc2)c1 [Example 211]	6.92		inhibition in vivo at 50 mg/kg [2, 5]: 47%
c1csc(COc2ccc(OCCN3CCCC3)cc2)c1 [Example 215]	7.07		inhibition in vivo at 50 mg/kg [2, 5]: 33%
NC(=O)C1CCN(CCOc2ccc(Cc3cccs3)cc2)CC1 [Example 229]	6.62	70%	
NC(=O)C1CCN(CCOc2ccc(Cc3ccsc3)cc2)CC1 [Example 230]	6.41	53%	
NC(=O)C1CCN(CCOc2ccc(Cc3cccc(F)c3)cc2)CC1 [Example 233]	6.43	98%	
c1ccc(Cc2ccc(OCCNC3CCCCC3)cc2)cc1 [Example 240]	5.97	33%	
c1ccc(Cc2ccc(OCCNC3CCCC3)cc2)cc1 [Example 241]	6.22	33%	
OC1CCN(CCOc2ccc(Cc3ccccc3)cc2)CC1 [Example 247]	7.00	70%	

SMILES	pIC50 ([1]; recombinant hLTA4H)	inhibition in vivo at 10 mg/kg [2, 4]	also measured
O=C(NC1CCN(CCOc2ccc(Cc3ccccc3)cc2)CC1)c1cc2ccccc2o1 [Example 248]	6.70	56%	
NC(=O)C1CCN(CCOc2ccc(Oc3ccccc3)cc2)CC1 [Example 252]	6.80	94%	
NC(=O)C1CCCN(CCOc2ccc(Oc3ccccc3)cc2)C1 (stereo not drawn) [Example 253]	6.04	73%	
CCOC(=O)C1CCN(CCOc2ccc(Oc3ccccc3)cc2)CC1 [Example 254]	5.22	87%	
O=C(OCc1ccccc1)C1CCCN1CCCOc1ccc(Cc2ccccc2)cc1 (stereo not drawn) [Example 258]	5.90		inhibition in vivo at 50 mg/kg [2, 5]: 81%
c1ccc(Cc2ccc(OCCCN3CCCC3)cc2)cc1 [Example 259]	7.00		inhibition in vivo at 50 mg/kg [2, 5]: 35%
COC(=O)C1CN(CCCOc2ccc(Cc3ccccc3)cc2)CCC1=O (stereo not drawn) [Example 262]	6.66	52%	
CC(C)(C)OC(=O)C1CCN(CCCOc2ccc(Cc3ccccc3)cc2)CC1 [Example 263]	5.35	60%	
O=C(CCNCCOc1ccc(Cc2ccccc2)cc1)OCc1ccccc1 [Example 266]	5.19	29%	
COC(=O)CCNCCCOc1ccc(Cc2ccccc2)cc1 [Example 267]	6.77		inhibition in vivo at 50 mg/kg [2, 5]: 100%
CCOC(=O)C1CCCN(CCCOc2ccc(Cc3ccccc3)cc2)C1 (stereo not drawn) [Example 269]	5.56	50%	
NC(=O)C1CCN(CC2CCc3cc(Cc4ccccc4)ccc3O2)CC1 (stereo not drawn) [Example 293]	6.32	93%	
COC(=O)CCN(C)CCCOc1ccc(Cc2ccsc2)cc1 [Example 330]	6.05		inhibition in vivo at 10 mg/kg [2, 3]: 95%
[O-][n+]1ccc2c(c1)ncn2CCOc1ccc(Cc2ccccc2)cc1 [Example 365]			pIC50 [1]: 7.09; inhibition in vivo at 10 mg/kg [2, 3]: 72%
CCOC(=O)C1CCN(CCOc2ccc(Cc3ccccc3)s2)CC1 [Example 370]	4.23		inhibition in vivo at 10 mg/kg [2, 6]: 96%
COC(=O)CCN(C)CCCOc1ccc(Cc2ccccc2)s1 [Example 375]	6.05		inhibition in vivo at 10 mg/kg [2, 6]: 67%
OC1CCN(CCOc2ccc(Cc3ccccc3)cc2)C1 (stereo not drawn) [Example 386]	7.49		inhibition in vivo at 10 mg/kg [2, 3]: 51%

Continued, in another order:

pIC50 ([1]; recombinant hLTA4H)	SMILES	inhibition in vivo at 10 mg/kg [2, 4]	also measured
6.21	O=C(CCNCCCCOc1ccc(Cc2ccccc2)cc1)OCc1ccccc1 [Example 273]	100%	
7.96	c1ccc(Cc2ccc3c(c2)CC(CN2CCCC2)O3)cc1 (stereo not drawn) [Example 280]	33%	
5.43	CCOC(=O)C1CCN(CC2Cc3cc(Cc4ccccc4)ccc3O2)CC1 (stereo not drawn) [Example 282]	57%	
6.15	NC(=O)C1CCN(CC2Cc3cc(Cc4ccccc4)cnc3O2)CC1 (stereo not drawn) [Example 288]	0%	
6.35	NC(=O)C1CCN(CC2Cc3cc(Oc4ccccc4)ccc3O2)CC1 (stereo not drawn) [Example 290]	94%	
5.10	CCOC(=O)C1CCN(CC2Cc3cc(Oc4ccccc4)ccc3O2)CC1 (stereo not drawn) [Example 291]	67%	
6.96	CC(=O)N1CCN(CC2Cc3cc(Cc4ccccc4)ccc3O2)CC1 (stereo not drawn) [Example 294]	57%	
6.36	CNC(=O)C1CCN(CC2Cc3cc(Cc4ccccc4)ccc3O2)CC1 (stereo not drawn) [Example 295]	80%	
6.15	CNC(=O)C1CCN(CC2Cc3cc(Oc4ccccc4)ccc3O2)CC1 (stereo not drawn) [Example 296]	72%	
5.35	CCOC(=O)CC1CCN(CCOc2ccc(Cc3ccccc3)cc2)CC1 [Example 301]	81%	
8.00	COC(=O)C1(O)CCN(CCOc2ccc(Cc3ccccc3)cc2)CC1 [Example 305]	42%	
5.60	CCOC(=O)C1CCN(CCOc2ccc(Cc3cccc(F)c3)cc2)CC1 [Example 309]	96%	
6.03	CCOC(=O)C1CCN(CCOc2ccc(Cc3cccs3)cc2)CC1 [Example 310]	96%	
6.79	CC(=O)N[C@H]1C[C@@H](C)N(CCOc2ccc(Cc3ccccc3)cc2)[C@@H](C)C1 [Example 315]	53%	
7.30	C[C@@H]1C[C@H](C(N)=O)C[C@H](C)N1CCOc1ccc(Cc2ccccc2)cc1 [Example 316]	85%	
6.44	NC(=O)N1CCN(CC2Cc3cc(Cc4ccccc4)ccc3O2)CC1 (stereo not drawn) [Example 337]	82%	
5.70	c1ccc(Cc2ccc(OCCn3cnc4ccccc43)cc2)cc1 [Example 339]	47%	
7.77	[O-][n+]1cccc2c1ncn2CCOc1ccc(Cc2ccccc2)cc1 [Example 363]	62%	
4.38	NC(=O)C1CCN(CCOc2ccc(Cc3ccccc3)s2)CC1 [Example 369]	100%	
6.85	OCC1CCCN1CCOc1ccc(Cc2ccccc2)cc1 (stereo not drawn) [Example 385]	32%	
7.00	CC1CCC(C)N1CCOc1ccc(Cc2ccccc2)cc1 (stereo not drawn) [Example 399]	30%	
5.76	CC(CN1CCCCCC1)Oc1ccc(Cc2ccccc2)cc1 (stereo not drawn) [Example 404]	52%	
